Assay results reported in patent US9326986B2, “Quinazolinone, quinolone and related analogs as sirtuin modulators” (GLAXOSMITHKLINE LLC, priority 2008, dated 2016).

Biological target: T1, SIRT1 (Homo sapiens, UniProt Q96EB6)
T1 sequence (Q96EB6 1-747): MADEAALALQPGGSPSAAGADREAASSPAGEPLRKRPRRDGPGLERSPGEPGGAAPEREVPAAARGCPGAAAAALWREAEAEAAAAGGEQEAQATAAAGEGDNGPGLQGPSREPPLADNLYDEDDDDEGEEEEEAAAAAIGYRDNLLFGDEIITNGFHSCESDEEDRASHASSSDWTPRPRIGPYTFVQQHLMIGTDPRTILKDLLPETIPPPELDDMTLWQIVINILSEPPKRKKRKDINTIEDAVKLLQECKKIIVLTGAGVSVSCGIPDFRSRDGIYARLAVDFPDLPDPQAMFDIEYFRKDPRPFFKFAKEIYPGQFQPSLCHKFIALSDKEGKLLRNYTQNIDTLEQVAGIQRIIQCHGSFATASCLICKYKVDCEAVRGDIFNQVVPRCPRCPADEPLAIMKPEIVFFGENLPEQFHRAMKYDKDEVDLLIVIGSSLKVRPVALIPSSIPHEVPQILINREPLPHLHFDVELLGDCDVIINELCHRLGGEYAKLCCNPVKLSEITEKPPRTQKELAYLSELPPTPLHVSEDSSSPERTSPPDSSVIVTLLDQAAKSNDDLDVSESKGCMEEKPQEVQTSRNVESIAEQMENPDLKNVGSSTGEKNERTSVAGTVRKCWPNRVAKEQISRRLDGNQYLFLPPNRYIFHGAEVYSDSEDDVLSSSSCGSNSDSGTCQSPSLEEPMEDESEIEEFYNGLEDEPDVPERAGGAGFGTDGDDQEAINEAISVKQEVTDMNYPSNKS
Assay: Mass spectrometry based assay to identify modulators of SIRT1 activity (deacetylation of p53-based acetylated peptide)
Format: biochemical
Details: 10 nM SIRT1, 0.5 μM peptide substrate, 120 μM βNAD+, 25 minutes at 25° C.; for EC1.5 μM: SIRT1 activation
From the text: A mass spectrometry based assay was used to identify modulators of SIRT1 activity. The mass spectrometry based assay utilizes a peptide having 20 amino acid residues as follows: Ac-EE-K(biotin)-GQSTSSHSK(Ac)NleSTEG-K(5TMR)-EE-NH2 (SEQ ID NO: 1) wherein K(Ac) is an acetylated lysine residue and Nle is a norleucine. The peptide is labeled with the fluorophore 5TMR (excitation 540 nm/emission 580 nm) at the C-terminus. The sequence of the peptide substrate is based on p53 with several modifications. In addition, the methionine residue naturally present in the sequence was replaced with the norleucine because the methionine may be susceptible to oxidation during synthesis and purification.
The mass spectrometry assay is conducted as follows: 0.5 μM peptide substrate and 120 μM βNAD^+ is incubated with 10 nM SIRT1 for 25 minutes at 25° C. in a reaction buffer (50 mM Tris-acetate pH 8, 137 mM NaCl, 2.7 mM KCl, 1 mM MgCl2, 5 mM DTT, 0.05% BSA). Test compounds may be added to the reaction as described above. […] After the 25 minute incubation with SIRT1, 10 μL of 10% formic acid is added to stop the reaction. Reactions are sealed and frozen for later mass spec analysis. Determination of the mass of the substrate peptide allows for precise determination of the degree of acetylation (i.e. starting material) as compared to deacetylated peptide (product).
A control for inhibition of sirtuin activity is conducted by adding 1 μL of 500 mM nicotinamide as a negative control at the start of the reaction (e.g., permits determination of maximum sirtuin inhibition). A control for activation of sirtuin activity is conducted using 10 nM of sirtuin protein, with 1 μL of DMSO in place of compound, to determine the amount of deacetylation of the substrate at a given timepoint within the linear range of the assay. This timepoint is the same as that used for test compounds and, within the linear range, the endpoint represents a change in velocity.
For the above assay, SIRT1 protein was expressed and purified as follows. […] The protein was expressed by induction with 1 mM IPTG as an N-terminal His-tag fusion protein at 18° C. overnight and harvested at 30,000×g. Cells were lysed with lysozyme in lysis buffer (50 mM Tris-HCl, 2 mM Tris[2-carboxyethyl]phosphine (TCEP), 10 μM ZnCl2, 200 mM NaCl) and further treated with sonication for 10 min for complete lysis. The protein was purified over a Ni-NTA column (Amersham) and fractions containing pure protein were pooled, concentrated and run over a sizing column (Sephadex S200 26/60 global). The peak containing soluble protein was collected and run on an Ion-exchange column (MonoQ). Gradient elution (200 mM-500 mM NaCl) yielded pure protein. This protein was concentrated and dialyzed against dialysis buffer (20 mM Tris-HCl, 2 mM TCEP) overnight. The protein was aliquoted and frozen at −80° C. until further use.
Sirtuin modulating compounds that activated SIRT1 were identified using the assay described above and are shown below in Tables 1 and 2. The EC1.5 values for the activating compounds are represented by A (EC1.5<1.0 μM), B (EC1.5 1-25 μM), C (EC1.5>25 μM). The percent maximum fold activation is represented by A (Fold activation>200%) or B (Fold Activation<200%).

Compound	% Fold Act. (percent maximum fold activation)	EC1.5 μM
Cn1c(-c2cccc(C(F)(F)F)c2)nc2c(C(=O)Nc3ccnc(CN4CCOCC4)n3)cccc2c1=O [Compound 307]	A (Fold activation>200%)	B (EC1.5 1-25 μM)
Cn1c(-c2cnccn2)nc2c(NC(=O)c3cnccn3)cccc2c1=O [Compound 281]	B (Fold Activation<200%)	C (EC1.5>25 μM)
Cn1c(-c2cccc(C(F)(F)F)c2)nc2c(NC(=O)c3cccc(N4CCCC4)n3)cccc2c1=O [Compound 342]	A (Fold activation>200%)	A (EC1.5<1.0 μM)
Cn1cc(-c2nc3c(NC(=O)c4cnccn4)cccc3c(=O)n2C)cn1 [Compound 291]	B (Fold Activation<200%)	C (EC1.5>25 μM)
Cn1c(-c2cccc(C(F)(F)F)c2)nc2c(C(=O)Nc3ccnc(N4CCCC4)c3)cccc2c1=O [Compound 349]	A (Fold activation>200%)	A (EC1.5<1.0 μM)
Cn1c(-c2cccc(C(F)(F)F)c2)nc2c(C(=O)Nc3ccc(CN4CC[C@H](F)C4)cn3)cccc2c1=O [Compound 346]	A (Fold activation>200%)	A (EC1.5<1.0 μM)
O=C(NC1CCOCC1)c1cccc2c(=O)cc(-c3cccc(C(F)(F)F)c3)[nH]c12 [Compound 412]	A (Fold activation>200%)	B (EC1.5 1-25 μM)
Cn1c(-c2cccc(C(F)(F)F)c2)nc2c(C(=O)Nc3nc(CN4CCNCC4)cs3)cccc2c1=O [Compound 366]	A (Fold activation>200%)	A (EC1.5<1.0 μM)
Cn1c(-c2ccccc2C(F)F)nc2c(C(=O)Nc3ccccn3)cccc2c1=O [Compound 322]	A (Fold activation>200%)	B (EC1.5 1-25 μM)
Cn1c(-c2cccc(C(F)(F)F)c2)nc2c(NC(=O)c3cccc(CN4CCCC4)c3)cccc2c1=O [Compound 364]	A (Fold activation>200%)	B (EC1.5 1-25 μM)
O=C(Nc1ccccn1)c1cccc2c(=O)[nH]c(-c3ccccc3C(F)F)nc12 [Compound 324]	A (Fold activation>200%)	A (EC1.5<1.0 μM)
Cn1c(-c2cccc(C(F)(F)F)c2)nc2c(NC(=O)c3cccc(CN4CCCC4)n3)cccc2c1=O [Compound 333]	A (Fold activation>200%)	A (EC1.5<1.0 μM)
O=C(Nc1nccs1)c1cccc2c(=O)cc(-c3cccc(OC(F)(F)F)c3)[nH]c12 [Compound 429]	A (Fold activation>200%)	A (EC1.5<1.0 μM)
Cn1c(-c2ccccc2OC(F)(F)F)nc2c(C(=O)Nc3ccccn3)cccc2c1=O [Compound 213]	A (Fold activation>200%)	B (EC1.5 1-25 μM)
Cn1c(-c2cccc(C(F)(F)F)c2)nc2c(C(=O)Nc3nccs3)cccc2c1=O [Compound 205]	B (Fold Activation<200%)	B (EC1.5 1-25 μM)
Cn1c(-c2cccc(C(F)(F)F)c2)nc2c(C(=O)Nc3nnc(C(C)(C)C)s3)cccc2c1=O [Compound 297]	A (Fold activation>200%)	A (EC1.5<1.0 μM)
Cn1c(-c2cccc(C(F)(F)F)c2)nc2c(NC(=O)c3cncs3)cccc2c1=O [Compound 229]	B (Fold Activation<200%)	B (EC1.5 1-25 μM)
O=C(Nc1nccs1)c1cccc2c(=O)cc(-c3ccccc3Cl)[nH]c12 [Compound 426]	A (Fold activation>200%)	A (EC1.5<1.0 μM)
Cn1c(-c2ccncc2)nc2c(NC(=O)c3cnccn3)cccc2c1=O [Compound 279]	B (Fold Activation<200%)	C (EC1.5>25 μM)
